From paper PMC6225228, “Design, Synthesis and Evaluation of N-pyrazinylbenzamides as Potential Antimycobacterial Agents” (Molecules : A Journal of Synthetic Chemistry and Natural …, 2018)
Values after ≈ are worked out from the molar mass of the structure shown. Read-outs that look alike come from different tables or passages of the source.

Key:
[1] = system: M. avium ssp. avium CNCTC My 80/72 (ATCC 15769); assay: Antimycobacterial microdilution MABA, M. avium; type: cell-based, Mycobacterium avium; conditions: Mycobacterium avium, ATCC15769, pH 6.6, read-out: M. avium ATCC 15769 MIC
[2] = system: Staphylococcus aureus CCM 4516/08; assay: Antibacterial microdilution broth, SA; type: cell-based
[3] = system: Staphylococcus aureus H 5996/08 methicillin resistant; assay: microbe, parasite or virus in culture; type: cell-based; conditions: for MIC: Staphylococcus aureus, MRSA, read-out: MIC MRSA
[4] = system: Staphylococcus epidermidis H 6966/08; assay: Antibacterial microdilution broth, SE; type: cell-based; conditions: read-out: MIC SE
[5] = system: Mycobacterium tuberculosis H37Rv CNCTC My 331/88 (ATCC 27294); assay: Antimycobacterial microdilution MABA, M. tuberculosis; type: cell-based; conditions: for Mtb H37Rv ATCC 27294 MIC: Middlebrook 7H9 with OADC growth supplement, pH = 6.6, MABA; for MIC: Mycobacterium tuberculosis, read-out: Mtb H37Rv ATCC 27294 MIC, Middlebrook 7H9 with OADC growth supplement, pH = 6.6, MABA
[6] = system: Candida albicans ATCC 44859; assay: Antifungal microdilution broth, CA; type: cell-based; conditions: Candida albicans, read-out: MIC CA
[7] = system: Enterococcus sp. J 14365/08; assay: Antibacterial microdilution broth, EF; type: cell-based; conditions: Enterococcus, read-out: MIC EF
[8] = system: Pseudomonas aeruginosa CCM 1961; assay: Antibacterial microdilution broth, PA; type: cell-based; conditions: Pseudomonas aeruginosa, read-out: MIC PA
[9] = system: Trichophyton interdigitale 445; assay: Antifungal microdilution broth, TI; type: cell-based; conditions: read-out: MIC TI
Candida tropicalis 156 = assay: Antifungal microdilution broth, CT; type: cell-based; conditions: read-out: MIC CT
[10] = system: Aspergillus fumigatus 231; assay: Antifungal microdilution broth, AF; type: cell-based; conditions: read-out: MIC AF
[11] = system: M. kansasii CNCTC My 235/80 (ATCC 12478); assay: Antimycobacterial microdilution MABA, M. kansasii; type: cell-based, Mycobacterium kansasii; conditions: Mycobacterium kansasii, ATCC12478, pH 6.6, read-out: M. kans. ATCC 12478 MIC, Middlebrook 7H9 with OADC, pH 6.6, MABA
[12] = system: Escherichia coli CCM 4517; assay: Antibacterial microdilution broth, EC; type: cell-based; conditions: Escherichia coli, read-out: MIC EC
Candida krusei E28 = assay: Antifungal microdilution broth, CK; type: cell-based; conditions: Pichia kudriavzevii, read-out: MIC CK
Trichosporon asahii 1188 = assay: Antifungal microdilution broth, TA; type: cell-based; conditions: read-out: MIC TA
Candida glabrata 20/I = assay: Antifungal microdilution broth, CG; type: cell-based; conditions: Nakaseomyces glabratus, 20/I, read-out: MIC CG
[13] = system: Mycobacterium smegmatis CCM 4622 (ATCC 607); assay: Antimycobacterial microdilution, M. smegmatis; type: cell-based; conditions: Mycolicibacterium smegmatis, read-out: M. smeg. ATCC 607 MIC
[14] = system: Lichtheimia corymbifera 272; assay: Antifungal microdilution broth, LC; type: cell-based; conditions: read-out: MIC LC
[15] = Staphylococcus aureus, CCM4516, 24 h, read-out: MIC SA, 24 h
[16] = Staphylococcus aureus, CCM4516, 48 h, read-out: MIC SA, 48 h
[17] = Staphylococcus epidermidis, H6966/08, 24 h
[18] = Staphylococcus epidermidis, H6966/08, 48 h
[19] = Trichophyton interdigitale, 445, 72 h
[20] = Trichophyton interdigitale, 445, 120 h
[21] = Aspergillus fumigatus, 231, 24 h
[22] = Aspergillus fumigatus, 231, 48 h
[23] = Trichosporon asahii, 1188, 24 h
[24] = Trichosporon asahii, 1188, 48 h
[25] = Lichtheimia corymbifera, 272, 24 h
[26] = Lichtheimia corymbifera, 272, 48 h

Row | SMILES | MIC [1] [µg/mL] | MIC [2, 15] [µM] | MIC [2, 16] [µM] | MIC ([3]; 24 h) [µM] | MIC ([3]; 48 h) [µM] | MIC [4, 17] [µM] | MIC [4, 18] [µM] | MIC [5] [µg/mL] | MIC ([6]; ATCC44859, 24 h) [µM] | MIC ([6]; ATCC44859, 48 h) [µM] | MIC ([7]; SP.J14365/08, 24 h) [µM] | MIC ([7]; SP.J14365/08, 48 h) [µM] | MIC ([8]; CCM1961, 72 h) [µM] | MIC ([8]; CCM1961, 120 h) [µM] | MIC [9, 19] [µM] | MIC [9, 20] [µM] | MIC (Candida tropicalis 156; Candida tropicalis, 156, 24 h) [µM] | MIC (Candida tropicalis 156; Candida tropicalis, 156, 48 h) [µM] | MIC [10, 21] [µM] | MIC [10, 22] [µM] | further results
1 | COc1cccc(C(=O)Nc2cnccn2)c1 [Compound 1f] | > 100 | > 500 | > 500 | > 500 | > 500 | > 500 | > 500 | > 100 | > 500 | > 500 | > 500 | > 500 | > 500 | > 500 | > 500 | > 500 | > 500 | > 500 | > 500 | > 500 | Mtb H37Rv ATCC 27294 MIC [5]: >100 µg/mL; MIC [11]: > 100 µg/mL; MIC ([12]; CCM4517, 24 h): > 500 µM; MIC ([12]; CCM4517, 48 h): > 500 µM; MIC (Candida krusei E28; E28, 24 h): > 500 µM; MIC (Candida krusei E28; E28, 48 h): > 500 µM; MIC (Trichosporon asahii 1188; [23]): > 500 µM; MIC (Trichosporon asahii 1188; [24]): > 500 µM; MIC (Candida glabrata 20/I; 24 h): > 500 µM; MIC (Candida glabrata 20/I; 48 h): > 500 µM; MIC [13]: ≥ 500 µg/mL; MIC [14, 25]: > 500 µM; MIC [14, 26]: > 500 µM
2 | CCc1ccc(C(=O)Nc2cnccn2)cc1 [Compound 1i] | > 100 | > 500 | > 500 | > 500 | > 500 | 500 (≈ 114 µg/mL) | 500 (≈ 114 µg/mL) | > 100 | > 500 | > 500 | 500 (≈ 114 µg/mL) | 500 (≈ 114 µg/mL) | > 500 | > 500 | > 500 | > 500 | > 500 | > 500 | > 500 | > 500 | MIC [11]: > 100 µg/mL; MIC ([12]; CCM4517, 24 h): > 500 µM; MIC ([12]; CCM4517, 48 h): > 500 µM; MIC (Candida krusei E28; E28, 24 h): > 500 µM; MIC (Candida krusei E28; E28, 48 h): > 500 µM; MIC (Trichosporon asahii 1188; [23]): > 500 µM; MIC (Trichosporon asahii 1188; [24]): > 500 µM; MIC (Candida glabrata 20/I; 24 h): > 500 µM; MIC (Candida glabrata 20/I; 48 h): > 500 µM; MIC [13]: ≥ 500 µg/mL; MIC [14, 25]: > 500 µM; MIC [14, 26]: > 500 µM
3 | O=C(Nc1cnccn1)c1cccc(C(F)(F)F)c1 [Compound 1n] | > 100 | > 125 | > 125 | > 125 | > 125 | 62.5 (≈ 16.7 µg/mL) | 62.5 (≈ 16.7 µg/mL) | > 100 | > 125 | > 125 | > 125 | > 125 | > 125 | > 125 | > 125 | > 125 | > 125 | > 125 | > 125 | > 125 | MIC ([2]; 24 h, read-out: MIC SA): >125 µM; MIC ([2]; 48 h, read-out: MIC SA): >125 µM; MIC MRSA ([3]; 24 h): >125 µM; MIC MRSA ([3]; 48 h): >125 µM; MIC ([4]; 24 h): 62.50 µM (≈ 16.7 µg/mL); MIC ([4]; 48 h): 62.50 µM (≈ 16.7 µg/mL); Mtb H37Rv ATCC 27294 MIC [5]: >100 µg/mL; MIC [11]: > 100 µg/mL; MIC ([12]; CCM4517, 24 h): > 125 µM; MIC ([12]; CCM4517, 48 h): > 125 µM; MIC (Candida krusei E28; E28, 24 h): > 125 µM; MIC (Candida krusei E28; E28, 48 h): > 125 µM; MIC (Trichosporon asahii 1188; [23]): > 125 µM; MIC (Trichosporon asahii 1188; [24]): > 125 µM; MIC (Candida glabrata 20/I; 24 h): > 125 µM; MIC (Candida glabrata 20/I; 48 h): > 125 µM; MIC [13]: ≥ 500 µg/mL; MIC [14, 25]: > 125 µM; MIC [14, 26]: > 125 µM
4 | COc1cccc(C(=O)Nc2cnc(Cl)cn2)c1 [Compound 2f] | > 100 | 31.2 (≈ 8.24 µg/mL) | 31.2 (≈ 8.24 µg/mL) | > 500 | > 500 | > 500 | > 500 | > 100 | 125 (≈ 33 µg/mL) | 500 (≈ 132 µg/mL) | > 500 | > 500 | > 500 | > 500 | > 500 | > 500 | > 500 | > 500 | > 500 | > 500 | MIC MRSA ([3]; 24 h): >500 µM; MIC MRSA ([3]; 48 h): >500 µM; MIC ([4]; 24 h): >500 µM; MIC ([4]; 48 h): >500 µM; MIC [11]: > 100 µg/mL; MIC ([12]; CCM4517, 24 h): > 500 µM; MIC ([12]; CCM4517, 48 h): > 500 µM; MIC (Candida krusei E28; E28, 24 h): > 500 µM; MIC (Candida krusei E28; E28, 48 h): > 500 µM; MIC (Trichosporon asahii 1188; [23]): > 500 µM; MIC (Trichosporon asahii 1188; [24]): > 500 µM; MIC (Candida glabrata 20/I; 24 h): > 500 µM; MIC (Candida glabrata 20/I; 48 h): > 500 µM; MIC [13]: ≥ 500 µg/mL; MIC [14, 25]: > 500 µM; MIC [14, 26]: > 500 µM
